Data set [1] has as its target TLR4 (Homo sapiens, UniProt O00206+Q9Y6Y9).
Data set [2] concerns the target T1, TLR4 (Homo sapiens, UniProt O00206). Kind of data set: Whole blood model of inflammation (cytokine secretion after LPS or E. coli). It counts as cell-based. As to the method:
Test of TLR4 inhibition by compounds of the invention with respect to impact on secretion of cytokines IL-6, IL-8, (TNFα) and IL1β in the whole blood model of inflammation was performed using the procedure described by Mollnes et al. (Blood, 2002, 100, 1869-1877) using (i) LPS to compare the two variants of 2126-HCl in a restricted set-up, (ii) gram negative bacteria to initiate innate immune response that involves both TLR4/MD2, TLR2, as well as the complement system (compare to anti-CD14 and compstatin).

The test system of data set [3] is LPS-induced TLR4 activation. Kind of data set: Real time microscopy of Akt1-GFP translocation (TLR4 signaling) in RAW264.7 macrophages. Format: cell-based, mouse. To be noted: RAW 264.7 Akt1-GFP, LPS 2 ng/ml. As for the experimental part: Lipopolysaccharide (LPS)-induced TLR4 activation initiates the phosphoinositide 3-kinase (PI3K) cascade, triggering translocation of Akt1 to the plasma membrane in murine macrophages. RAW 264.7 cells transfected with an Akt1-GFP reporter13 were treated with drug then activated with LPS. In the absence of LPS, Akt1-GFP was uniformly diffused throughout the cytosol as observed by fluorescence microscopy. Addition of LPS (2 ng/ml) caused a rapid translocation of Akt1-GFP to the plasma membrane, lowering the Akt1-GFP concentration in the cytosol. Doses of Compound A-1 as low as 2 μM and Compound A-2 as low as 200 nM substantially abolished LPS-induced activation of the signaling pathway.
FIGS. 3A and 3B. A small dose of chemotactic peptide C5a (25 ng/mL) that stimulates PI3K15 was able to rescue the Akt signaling inhibited by either compound. […]
TLR4 signaling leads to the simultaneous activation of three parallel intra-cellular signaling pathways. […] Baseline fluorescence was captured for 5 frames, following which vehicle or antagonist was added in 200 μl. Imaging continued for a further 20 frames at which time LPS or test agonist (200 μl) were applied and monitored for a further 20 frames. […] GFP-Akt1 cytosolic clearance was quantified using ImageJ and expressed as a normalized change in cytoplasmic fluorescence over time.

Data set [4] has as its target T1, TLR4. As to the kind of experiment: Secreted alkaline phosphatase (SEAP) reporter gene assay in HEK293 cells transfected with TLR4. To be noted: HEK293, SEAP reporter downstream of NF-κB promoter; dose-dependent manner. It counts as cell-based. As to the method: FIGS. 3A and 3B. A small dose of chemotactic peptide C5a (25 ng/mL) that stimulates PI3K15 was able to rescue the Akt signaling inhibited by either compound. Global translocation of Akt1-GFP to the plasma membrane was observed, confirming that these cells retained normal Akt signaling transduction functions. Akt1 is directly downstream of TLR4 in the signal transduction pathway. […] Murine macrophages express a variety of TLRs and immune receptors. […] The activity of Compound A-1 was further confirmed in an established TLR4 assay in HEK293 cells, where a secreted alkaline phosphatase reporter gene is located downstream from the NF-κB promoter. Compound A-1 was effective at blocking the downstream proinflammatory effectors of TLR4 in a dose-dependent manner.
Materials for the SEAP assay were obtained from Applied Biosystems (CA, USA) and utilized according to the manufacturer's specifications. Human embryonic kidney 293 (HEK293) cells stably transfected with TLR4 and a secreted alkaline phosphatase (SEAP) reporter gene was obtained from Invivogen (CA, USA). […]
A sample of CSF buffer (15 μL) from each well was collected and transferred to an opaque white 96 well plate (Microfluor 2, Thermo Scientific MA, USA). […] After 20 min, the luminescence of each well was measured using a plate reader (Beckman Coulter, DTX 880, CA, USA) with multimode analysis software.
(Reporter assays use an easily measured gene product as a stand-in for the process of interest.)

The subject of data set [5] is HEK293 cells stably transfected with TLR4. Kind of data set: Cell viability assay (Trypan Blue). To be noted: tested concentrations, FIG. 4. It counts as cell-based, human. As for the experimental part: Human embryonic kidney 293 (HEK293) cells were stably transfected with TLR4 and necessary assembly and signalling proteins (MD2, CD-14, LPSBP, etc.). Cells were cultured in DMEM supplemented with 10% FBS, penicillin (100 U/ml), streptomycin ([…]), L-glutamine (2 mM), 0.1 mg/ml normocin (InvivoGen, CA, USA) and 1×HEK Blue selection reagent (InvivoGen, CA, USA). Cells were implanted in 6 cm plates and grown to 65-75% confluency by incubating at 37° C., prior to drug treatment. On the day of treatment, media was removed from the 6 cm plate and replaced with cerebrospinal fluid (CSF) buffer supplemented with drug treatment. After 24 h incubation at 37° C., CSF was removed and cells were agitated with 0.05% Trypsin plus 0.2 g/l EDTA (Invitrogen, CA, USA) and re-suspended in fresh DMEM supplemented media. After re-suspension, a […] was taken from each 6 cm plate, mixed gently with 100 μl 0.4% Trypan Blue (Sigma, Mo., USA) and allowed to sit for 5 min. The ratio of blue stained cells to total cells was then quantified using a Bright Line 0.1 mm depth hemocytometer (VWR, PA, USA) under a Nikon TMS light microscope (Nikon Instrumentals, CA USA).

For data set [6] the following is noted: rat, in vivo.
Data set [7] is described as follows: Hargreaves test (radiant heat withdrawal), intrathecal injection with or without morphine. To be noted: rat.
The mark [8] stands for this setting: clinically employed (−)-opioids.

Where two headings read alike, the source gives them in different places.

Sequence of TLR4 (Homo sapiens, UniProt O00206+Q9Y6Y9) (O00206 24-839, species assumed): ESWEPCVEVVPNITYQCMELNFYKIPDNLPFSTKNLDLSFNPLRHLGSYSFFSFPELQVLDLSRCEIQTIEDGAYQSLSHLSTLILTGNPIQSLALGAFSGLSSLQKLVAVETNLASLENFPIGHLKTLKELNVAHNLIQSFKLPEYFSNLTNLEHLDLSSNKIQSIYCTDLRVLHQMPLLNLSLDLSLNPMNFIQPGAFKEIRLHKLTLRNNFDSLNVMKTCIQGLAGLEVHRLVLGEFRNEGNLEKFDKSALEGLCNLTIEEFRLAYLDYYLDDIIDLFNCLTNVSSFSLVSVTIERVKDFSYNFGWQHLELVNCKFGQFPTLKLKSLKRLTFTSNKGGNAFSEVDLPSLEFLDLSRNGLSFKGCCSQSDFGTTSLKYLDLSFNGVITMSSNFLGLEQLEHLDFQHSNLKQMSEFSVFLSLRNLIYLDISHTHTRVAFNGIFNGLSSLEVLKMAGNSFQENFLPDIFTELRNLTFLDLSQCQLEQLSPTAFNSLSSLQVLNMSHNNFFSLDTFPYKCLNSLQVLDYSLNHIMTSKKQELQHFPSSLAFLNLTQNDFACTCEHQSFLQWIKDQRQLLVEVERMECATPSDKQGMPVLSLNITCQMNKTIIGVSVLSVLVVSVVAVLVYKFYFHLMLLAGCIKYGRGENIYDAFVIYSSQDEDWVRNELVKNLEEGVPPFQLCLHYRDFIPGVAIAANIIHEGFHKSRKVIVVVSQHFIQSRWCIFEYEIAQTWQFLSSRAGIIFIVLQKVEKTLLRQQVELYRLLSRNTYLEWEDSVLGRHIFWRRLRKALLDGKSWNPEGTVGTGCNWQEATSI
Sequence of TLR4 (Homo sapiens, UniProt O00206+Q9Y6Y9) (Q9Y6Y9 19-160, species assumed): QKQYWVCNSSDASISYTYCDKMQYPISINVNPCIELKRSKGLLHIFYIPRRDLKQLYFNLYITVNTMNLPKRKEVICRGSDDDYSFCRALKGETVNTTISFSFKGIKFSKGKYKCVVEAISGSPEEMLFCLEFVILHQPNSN
T1 sequence (O00206 24-839): as the sequence (O00206 24-839, species assumed) above

Take `COc1ccc2c3c1O[C@H]1C(=O)CC[C@@]4(O)[C@@H](C2)N(C)CC[C@]314` [oxycodone]: in data set [1] (setting [8]), the TLR4 agonism result is listed as “TLR4 agonists”.

As to `CN1CC[C@]23c4c5ccc(O)c4O[C@H]2[C@@H](O)C=C[C@H]3[C@H]1C5` [morphine], the TLR4 agonism result in data set [1] was “TLR4 agonists”.

Take `CCOC(=O)C1(c2ccccc2)CCN(C)CC1` [pethadine/meperidine]: the TLR4 agonism entry in data set [1] (setting [8]) is recorded as “TLR4 agonists”.

With `CC[C@H](C)[C@H](N)C(=O)N[C@H]1CSSC[C@@H](C(=O)N[C@H](C(N)=O)[C@@H](C)O)NC(=O)[C@H](CCCN=C(N)N)NC(=O)[C@H](Cc2cnc[nH]2)NC(=O)[C@H](Cc2cnc[nH]2)NC(=O)CNC(=O)[C@H](Cc2c[nH]c3ccccc23)NC(=O)[C@H](CC(=O)O)NC(=O)[C@H](CCC(N)=O)NC(=O)[C@H](C(C)C)NC(=O)[C@H](C(C)C)NC1=O` [compstatin], the “effect of compstatin on the inhibition of Il-6 levels by anti-CD14 and 2126-HCl” value in data set [2] (E. coli as activator) is listed as “increased the inhibitory effect”. The “reduction of Il-1β plasma levels” value in data set [2] (E. coli stimulation, 2126-HCl 500 μM, compstatin 25 μM) is “about 50%”. Also, the “cytokine release in response to E. coli on addition of compstatin” value in data set [2] (E. coli, added to anti-CD14 or 2126-HCl) is reported as “further decreased”. Also, the cytokine specificity result in data set [2] (compstatin itself) was “specific for Il8 and Il-1β”. Moreover, in data set [2] (whole blood), the “effect on Il-6 secretion / plasma levels” value is “little impact”.

As for `CCOc1ccc(OCC(O)CN(C)Cc2c(C)nn(Cc3ccccc3Cl)c2C)cc1` (stereo not drawn) [Compound A-1, 1-(((1-(2-chlorobenzyl)-3,5-dimethyl-1H-pyrazol-4-yl)methyl)(methyl)amino)-3-(4-ethoxyphenoxy)propan-2-ol], the “dose that substantially abolished LPS-induced activation of the signaling pathway” value in data set [3] was at most 2 µM. The “blocking the downstream proinflammatory effectors of TLR4” value in data set [4] was “effective”. The cellular toxicity result in data set [5] is “neither Compound A-1 nor Compound A-2 showed any significant cellular toxicity”. Moreover, the “behavioral effects of compound alone” value in data set [6] is listed as “no detectable behavioral effects”. For the same compound, in data set [7] (with morphine, maximal analgesia recordable (10 s cut-off) across two hours), the “potentiation of the analgesic effects of morphine” value was “significantly potentiated”. In data set [7] (without morphine), the “effect on pain responsivity in the absence of co-administered morphine” value was “no effect”.

On to `CCC(=O)C(CC(C)N(C)C)(c1ccccc1)c1ccccc1` (stereo not drawn) [methadone], for which the TLR4 agonism entry in data set [1] (setting [8]) is reported as “TLR4 agonists”.

Source of the values: patent publication US8642614B2, “Toll-like receptor modulators and uses thereof” (The Regents of the University of Colorado, a body corporate, priority 2009, dated 2014).
